This note sets out measurements from US6537804B1, “BCR-ABL directed compositions and uses for inhibiting Philadelphia chromesome stimulated cell growth” (Board of Regents, The University of Texas Systems, priority 1995, dated 2003).

What all share (assay type): cell-based, human
Series [1] has as its system SUP-B15 cells. Briefly: Growth of SUP-B15 cells, trypan blue exclusion. As for the experimental part: FIG. 20A, B15 cells cultured in 20% FCS containing RPMI media with either the 3′ BCR antisense oligonucleotides (10 μM at day 1) (open squares) or the sense oligonucleotides (10 μM at day 1) (closed squares).
The biological effects of the 3′ BCR antisense oligonucleotide treatment were tested on SUP-B15 cells. SUP-B15 cells were seeded in triplicate wells at a concentration of 1.6×10^5 cells/ml in a 200 μl volume of RPMI media supplemented with 20% FCS. Oligonucleotides were added to the cells at a final concentration of 10 μM. Cell number was monitored by trypan blue exclusion assay for 9 days. The mean cell number of the triplicates was determined each day (FIG. 20A).

The subject of series [2] is SUP-B15 cells. Briefly: Survival of SUP-B15 cells in low serum, trypan blue exclusion. Particulars: 5% FCS, 10 μM. How it is done:
SUP-B15 cells (2×10^6 cells) were maintained in RPMI medium containing 5% fetal calf serum. Cells will not grow under these conditions and will slowly die off since cell growth requires 20% serum. Cells were treated with the 3′ BCR anti-sense (open squares) or sense oligo (closed squares) at a concentration of 10 μM. The number of viable cells was determined by trypan blue dye exclusion. The data are expressed as the mean (+/−SEM) of three replicates.
B15 cells were cultured in a low serum containing media [5% fetal calf serum (FCS)]. These cells normally require 20% FCS. A batch of B15 cells (2.2×10^6/ml) was cultured in RPMI containing 5% FCS. 200 μl of this suspension was seeded into each well of a 96 well culture plate. Either the antisense or sense oligonucleotides were added to the culture at a final concentration of 10 μM. The cell numbers were determined as an average of the triplicates and plotted in FIG. 14.

The test system of series [3] is P185 BCR-ABL. Briefly: Western blotting with anti-Abl monoclonal antibody 8E9 of treated SUP-B15 cells. How it is done:
(§1) SUP-B15 cells express p185 BCR-ABL; they were derived from a patient with Philadelphia chromosome-positive ALL. One-tenth of the cells harvested in the study shown in FIG. 13 was assayed for Bcr-Abl expression by Western blotting with the anti-Abl monoclonal antibody 8E9. […] Similarly, the Abl protein was reduced about 26% in the anti-sense treated culture compared to sense. Quantitation was done by a densitometer SI unit (Molecular Dynamics).
(§2) In this study, equal amounts of the sense and the antisense oligonucleotide treated B15 cells were analyzed.

Series [4] relates to M3.16 cells. Briefly: Growth of M3.16 cells, trypan blue exclusion. Particulars: DMEM 10% FCS, 10 μM at day 1, half at day 5, light microscopy at day 9. How it is done:
FIG. 20B, M3.16 cells cultured in 10% FCS containing DMEM media with either the 3′ BCR antisense oligonucleotides (open squares) or the sense oligonucleotide (closed squares) as above. Oligonucleotides were added at day 1 at a final concentration of 10 μM and added again at day 5 at half of the initial concentration. Cell viability was determined by trypan blue dye exclusion. The data are the mean +/−SEM of a triplicate analysis.
For this particular study, the cell number was followed up for a longer period of time (11 days) and oligonucleotides were added again at day 5 at half of the initial concentration.

Series [5] concerns p160 BCR. Briefly: Immunokinase assay with anti-BCR (1256-1271) on oligonucleotide treated SUP-B15 cells. As for the experimental part:
(§3) SUP B15 cells were treated with anti-sense BCR oligonucleotides as in FIG. 12. Equal amounts of cells processed from sense and antisense treated cultures were harvested at day 7. Cells were analyzed for Bcr protein and Bcr/Bcr-Abl complexes by assaying with an antibody to the carboxy terminal of Bcr, as described (Liu et al., 1993). Lane 1 is an SDS gel pattern of the sense treated culture; lane 2 is the assay performed with peptide-blocked antibody. Lane 3 is the pattern from anti-sense treated culture; lane 4 is the peptide-blocked control. […] Quantitation measurements indicate that the level of Bcr protein was reduced about 10-fold by antisense treatment compared to sense, when normalized for the amount of Abl protein in the cultures.
The effects of the sense and antisense 3′ BCR oligonucleotides were tested on BCR expression in SUP-B15 cells, a cell line derived from a Ph^1-positive acute lymphocytic leukemia patient that expresses p185 BCR-ABL. Immunokinase assays were performed with anti-BCR (1256-1271) peptide antibody (the antibody detects Bcr proteins but not Bcr-Abl proteins) to determine the level of BCR expression in B15 cells after 7 days treatment with either the sense or antisense 3′ BCR oligonucleotides (FIG. 13, lanes 1 and 3).
(§4) These antibodies detect Bcr directly but not Bcr-Abl protein. However because Bcr can complex with Bcr-Abl, this assay also detects Bcr-Abl which is co-precipitated along with Bcr.
Incubation of these immune complexes with labeled ATP causes tyrosine phosphorylation of Bcr by Bcr-Abl and autophosphorylation of Bcr-Abl (Liu et al., 1993). […] Using Abl Western blot data as an internal control for mass, the specific reduction in Bcr is estimated to be about 10-fold.

In series [6] the test system is c-Abl. Briefly: Western blotting with anti-Abl monoclonal antibody 8E9 of treated SUP-B15 cells. How it is done:
as §1
Using c-Abl as an internal control, the actual reduction of p160 BCR in B15 cells by the antisense treatment is about 10 fold.
(In general: In western blotting, separated proteins are transferred to a membrane and probed.)

Series [7] concerns p160 BCR/p185 BCR-ABL complexes. Briefly: Co-precipitated Bcr-Abl in anti-BCR (1256-1271) immunokinase assay of treated SUP-B15 cells. Particulars: antisense compared to sense treated. As for the experimental part: as §3, §2, §4

For “5′ATCATCACCGACACATCC 3′ (phosphotriester linkages at both ends, further chemistry not given here) [3′ BCR antisense oligonucleotide]”, the “Growth density compared to sense oligonucleotide treatment” value in series [1] (RPMI 20% FCS, 10 μM, 9 days) was “sustained a higher growth density”. For the same substance, the “Live cells relative to sense treated cultures” value in series [1] (seven days in culture) is “twice”. Besides, the “Survival compared to sense oligonucleotide treatment” value in series [2] is reported as “increased survival”. Also, the “Number of viable cells relative to sense-treated cells” value in series [2] (after five days of treatment) is recorded as “about twice”. Also, the “Reduction in Bcr-Abl protein, anti-sense compared to sense” value in series [3] (Western blot 8E9, densitometer) stood at 35%. For the same substance, in series [3] (Western blot with anti-Abl monoclonal antibody), the “Expression of p185 BCR-ABL” value is on record as “not significantly altered”. Besides, the “Reduction of Bcr-Abl level, antisense versus sense treated cells” value in series [3] (quantitation of FIG. 12) is “about 1.6 fold”. Moreover, the “Confluence compared to sense treated cells” value in series [4] is on record as “more confluent”. In series [5] (7 days treatment), the “Level of BCR protein, antisense compared with sense treated cells” value is reported as “much lower levels”. For the same substance, the “Reduction of p160 BCR normalized for the amount of Abl protein (c-Abl as internal control)” value in series [5] (day 7, antisense compared to sense) is reported as “about 10 fold”. Further, the “Reduction of p160 BCR, antisense versus sense treated cells” value in series [5] (day 7, densitometer quantitation of FIG. 13 lanes 1 and 3) was “about 14 times”. Further, in series [5] (seven days, phosphorimager analyses), the “Reduction of the amount of Bcr by anti-sense” value is listed as “about 14 fold”. In addition, the “Reduction in Abl protein, anti-sense compared to sense” value in series [6] (Western blot 8E9, densitometer) is listed as “about 26%”. Also, the “Reduction of c-Abl level, antisense versus sense treated cells” value in series [6] (quantitation of FIG. 12) is recorded as ~1.35 fold. Also, the “Amount of p160 BCR/p185 BCR-ABL complexes” value in series [7] is recorded as “reduced”.
